From publication PMC5856393, “Synthetic pathways and processes for effective production of 5-hydroxytryptophan and serotonin from glucose in Escherichia coli” (Journal of Biological Engineering, 2018)

Columns and labels:
[1] = target: T1, TDC (tryptophan decarboxylase) (Catharanthus roseus, UniProt P17770); test: whole-cell bioconversion, HPLC of serotonin; type: cell-based; details: E. coli BL21(DE3) delta-tnaA expressing TDC; pH 6.7, 30 °C
T1 construct: expressed in E. coli BL21(DE3) delta-tnaA from pCOLAJ23-TDC; gene from pCOLADuet-GSTdelta37T5H + TDC

[2] = target: T2, CtAAAH-F (aromatic amino acid hydroxylase W192F) (Cupriavidus taiwanensis, UniProt B3R7Q6, W192F/F197L); test: tryptophan hydroxylation assay, Lineweaver-Burk plot; type: biochemical; details: made in the CtAAAH-F (W192F) background; assay conditions only by citation
T2 construct: gene phhA; engineered W192F parent, expressed in E. coli from pACYCDuet-1 derivatives; tag and purification not described here
Source text: (§1) tryptophan hydroxylation assay, Lineweaver-Burk plot on CtAAAH-F (aromatic amino acid hydroxylase W192F)

[3] = target: T3, CtAAAH-F (aromatic amino acid hydroxylase W192F) (Cupriavidus taiwanensis, UniProt B3R7Q6, W192F/F197I); test: as above; type: biochemical; details: made in the CtAAAH-F (W192F) background; assay conditions only by citation
T3 construct: gene phhA; engineered W192F parent, expressed in E. coli from pACYCDuet-1 derivatives; tag and purification not described here
Source text: as §1

[4] = target: T4, CtAAAH-F (aromatic amino acid hydroxylase W192F) (Cupriavidus taiwanensis, UniProt B3R7Q6, W192F); test: as above; type: biochemical; details: parent CtAAAH-F (W192F); assay conditions only by citation
T4 construct: gene phhA; engineered W192F parent, expressed in E. coli from pACYCDuet-1 derivatives; tag and purification not described here
Source text: as §1

[5] = target: T5, CtAAAH-F (aromatic amino acid hydroxylase W192F) (Cupriavidus taiwanensis, UniProt B3R7Q6, W192F/F197L/E219C); test: as above; type: biochemical; details: made in the CtAAAH-F (W192F) background; assay conditions only by citation
T5 construct: gene phhA; engineered W192F parent, expressed in E. coli from pACYCDuet-1 derivatives; tag and purification not described here
Source text: as §1

[6] = target: T6, CtAAAH-F (aromatic amino acid hydroxylase W192F) (Cupriavidus taiwanensis, UniProt B3R7Q6, W192F/E219C); test: as above; type: biochemical; details: made in the CtAAAH-F (W192F) background; assay conditions only by citation
T6 construct: gene phhA; engineered W192F parent, expressed in E. coli from pACYCDuet-1 derivatives; tag and purification not described here
Source text: as §1

T1 sequence (P17770 whole entry): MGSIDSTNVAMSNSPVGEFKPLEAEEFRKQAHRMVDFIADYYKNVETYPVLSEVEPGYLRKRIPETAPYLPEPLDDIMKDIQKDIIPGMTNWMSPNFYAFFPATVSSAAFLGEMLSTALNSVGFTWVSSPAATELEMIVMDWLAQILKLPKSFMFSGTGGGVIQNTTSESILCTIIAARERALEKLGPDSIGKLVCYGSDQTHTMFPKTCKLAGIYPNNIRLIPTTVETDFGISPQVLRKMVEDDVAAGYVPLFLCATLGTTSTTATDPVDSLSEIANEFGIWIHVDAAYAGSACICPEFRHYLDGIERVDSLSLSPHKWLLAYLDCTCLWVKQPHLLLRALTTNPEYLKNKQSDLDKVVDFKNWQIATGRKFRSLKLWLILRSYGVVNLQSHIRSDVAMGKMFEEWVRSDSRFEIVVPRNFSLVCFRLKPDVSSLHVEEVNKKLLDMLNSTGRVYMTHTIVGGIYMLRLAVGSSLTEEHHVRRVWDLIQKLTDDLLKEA
T5 sequence (B3R7Q6 entry or part of it W192F/F197L/E219C): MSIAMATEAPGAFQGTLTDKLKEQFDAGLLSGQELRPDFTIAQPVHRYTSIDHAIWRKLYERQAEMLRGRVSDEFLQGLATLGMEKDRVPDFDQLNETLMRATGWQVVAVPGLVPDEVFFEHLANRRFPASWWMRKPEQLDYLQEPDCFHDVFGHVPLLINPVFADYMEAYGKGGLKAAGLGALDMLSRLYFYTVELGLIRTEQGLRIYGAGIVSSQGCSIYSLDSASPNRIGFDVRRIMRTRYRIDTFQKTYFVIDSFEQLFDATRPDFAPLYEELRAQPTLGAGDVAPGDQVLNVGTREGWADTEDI
T3 sequence (B3R7Q6 entry or part of it W192F/F197I): as the sequence (B3R7Q6 entry or part of it W192F/F197L/E219C) above, with L197I, C219E counted along it
T4 sequence (B3R7Q6 entry or part of it W192F): as the sequence (B3R7Q6 entry or part of it W192F/F197L/E219C) above, with L197F, C219E counted along it
T2 sequence (B3R7Q6 entry or part of it W192F/F197L): as the sequence (B3R7Q6 entry or part of it W192F/F197L/E219C) above, with C219E counted along it
T6 sequence (B3R7Q6 entry or part of it W192F/E219C): as the sequence (B3R7Q6 entry or part of it W192F/F197L/E219C) above, with L197F counted along it

N[C@@H](Cc1c[nH]c2ccc(O)cc12)C(=O)O [5HTP]
whole-cell bioconversion, HPLC of serotonin [1]: The consumption of 5HTP and serotonin production had a strong correlation

N[C@@H](Cc1c[nH]c2ccccc12)C(=O)O [tryptophan]
Km [2]: 1600 µM
Km [3]: 2100 µM
Km [4]: 3000 µM
Km [5]: 950 µM
Km [6]: 1800 µM
